In the supplement of paper PMC10307832:

Experiments:
Experiment in all cases: relative viability (nuclei count vs DMSO), 5 days (fraction); higher = more cells survive
[1] = tested on: A-427
Summary of the method: (§1)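 Relative viability is defined as nuclei in treated wells over nuclei in vehicle wells. Duplicate plates were run and medians reported. Lung cancer cell lines in 1536-well plates were dosed by pin tool one day after seeding, with one drug or with a fixed anchor-drug dose plus five library-drug doses (not always all listed) in √10 steps, and nuclei were counted after 5 days.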

[2] = tested on: H3255
Summary of the method: as §1

[3] = tested on: HARA
Summary of the method: as §1

[4] = tested on: HCC-366
Summary of the method: as §1

[5] = tested on: HCC-44
Summary of the method: as §1

[6] = tested on: LCLC-97TM1
Summary of the method: as §1

[7] = tested on: LXF-289
Summary of the method: as §1

[8] = tested on: NCI-H1395
Summary of the method: as §1

[9] = tested on: NCI-H1755
Summary of the method: as §1

[10] = tested on: NCI-H1915
Summary of the method: as §1

[11] = tested on: NCI-H1975
Summary of the method: as §1

[12] = tested on: NCI-H1993
Summary of the method: as §1

[13] = tested on: NCI-H2170
Summary of the method: as §1

[14] = tested on: NCI-H2228
Summary of the method: as §1

[15] = tested on: NCI-H2347
Summary of the method: as §1

[16] = tested on: NCI-H2405
Summary of the method: as §1

[17] = tested on: NCI-H3122
Summary of the method: as §1

[18] = tested on: NCI-H441
Summary of the method: as §1

[19] = tested on: NCI-H520
Summary of the method: as §1

[20] = tested on: NCI-H838
Summary of the method: as §1

[21] = tested on: PC-14
Summary of the method: as §1

[22] = tested on: RERF-LC-KJ
Summary of the method: as §1

[23] = tested on: SK-MES-1
Summary of the method: as §1

In the case of `C=C1C(=O)O[C@@H](CCCCCCCC)[C@@H]1C(=O)O` [C-75] + Nc1nc2[nH]cc(CCc3ccc(C(=O)N[C@@H](CCC(=O)O)C(=O)O)cc3)c2c(=O)[nH]1 [Pemetrexed] (partner 0.2 µM), the relative viability ([1]; first compound 0.08 µM) is reported as 0.949, the relative viability ([1]; first compound 0.253 µM) is reported as 0.774 and the relative viability ([1]; first compound 0.8 µM) is reported as 0.813. The relative viability ([1]; first compound 2.53 µM) was 0.71, the relative viability ([1]; first compound 8 µM) was 0.871 and the relative viability ([2]; first compound 0.08 µM) was 0.588. It also gave a relative viability ([2]; first compound 0.253 µM) of 0.561, a relative viability ([2]; first compound 0.8 µM) of 0.577 and a relative viability ([2]; first compound 2.53 µM) of 0.525. For the same compound, the relative viability ([2]; first compound 8 µM) was 0.627, the relative viability ([3]; first compound 0.08 µM) was 0.273 and the relative viability ([3]; first compound 0.253 µM) was 0.254. It also gave a relative viability ([3]; first compound 0.8 µM) of 0.233, a relative viability ([3]; first compound 2.53 µM) of 0.222 and a relative viability ([3]; first compound 8 µM) of 0.299. It also gave a relative viability ([4]; first compound 0.08 µM) of 0.156, a relative viability ([4]; first compound 0.253 µM) of 0.183 and a relative viability ([4]; first compound 0.8 µM) of 0.149. For the same compound, the relative viability ([4]; first compound 2.53 µM) was 0.22, the relative viability ([4]; first compound 8 µM) was 0.188 and the relative viability ([5]; first compound 0.08 µM) was 0.58. For the same compound, the relative viability ([5]; first compound 0.253 µM) was 0.698, the relative viability ([5]; first compound 0.8 µM) was 0.683 and the relative viability ([5]; first compound 2.53 µM) was 0.572. It also gave a relative viability ([5]; first compound 8 µM) of 0.634, a relative viability ([6]; first compound 0.08 µM) of 0.197 and a relative viability ([6]; first compound 0.253 µM) of 0.195. It also gave a relative viability ([6]; first compound 0.8 µM) of 0.177, a relative viability ([6]; first compound 2.53 µM) of 0.129 and a relative viability ([6]; first compound 8 µM) of 0.145. It also gave a relative viability ([7]; first compound 0.08 µM) of 0.834, a relative viability ([7]; first compound 0.253 µM) of 0.906 and a relative viability ([7]; first compound 0.8 µM) of 0.858. The relative viability ([7]; first compound 2.53 µM) was 0.886, the relative viability ([7]; first compound 8 µM) was 0.904 and the relative viability ([8]; first compound 0.08 µM) was 0.881. For the same compound, the relative viability ([8]; first compound 0.253 µM) was 0.807, the relative viability ([8]; first compound 2.53 µM) was 0.758 and the relative viability ([8]; first compound 8 µM) was 0.914. It also gave a relative viability ([9]; first compound 0.08 µM) of 0.457, a relative viability ([9]; first compound 0.253 µM) of 0.468 and a relative viability ([9]; first compound 0.8 µM) of 0.46. For the same compound, the relative viability ([9]; first compound 2.53 µM) was 0.391, the relative viability ([9]; first compound 8 µM) was 0.438 and the relative viability ([10]; first compound 0.08 µM) was 0.471. It also gave a relative viability ([10]; first compound 0.253 µM) of 0.475, a relative viability ([10]; first compound 0.8 µM) of 0.483 and a relative viability ([10]; first compound 2.53 µM) of 0.448. It also gave a relative viability ([10]; first compound 8 µM) of 0.527, a relative viability ([11]; first compound 0.08 µM) of 0.281 and a relative viability ([11]; first compound 0.253 µM) of 0.287. For the same compound, the relative viability ([11]; first compound 0.8 µM) was 0.262, the relative viability ([11]; first compound 2.53 µM) was 0.264 and the relative viability ([11]; first compound 8 µM) was 0.292. For the same compound, the relative viability ([12]; first compound 0.08 µM) was 0.564, the relative viability ([12]; first compound 0.253 µM) was 0.716 and the relative viability ([12]; first compound 0.8 µM) was 0.541. For the same compound, the relative viability ([12]; first compound 2.53 µM) was 0.652, the relative viability ([12]; first compound 8 µM) was 0.478 and the relative viability ([13]; first compound 0.08 µM) was 0.244. The relative viability ([13]; first compound 0.253 µM) was 0.271, the relative viability ([13]; first compound 0.8 µM) was 0.286 and the relative viability ([13]; first compound 2.53 µM) was 0.266. The relative viability ([13]; first compound 8 µM) was 0.282, the relative viability ([14]; first compound 0.08 µM) was 0.33 and the relative viability ([14]; first compound 0.253 µM) was 0.332. The relative viability ([14]; first compound 0.8 µM) was 0.29, the relative viability ([14]; first compound 2.53 µM) was 0.333 and the relative viability ([14]; first compound 8 µM) was 0.318. The relative viability ([15]; first compound 0.08 µM) was 0.402, the relative viability ([15]; first compound 0.253 µM) was 0.388 and the relative viability ([15]; first compound 0.8 µM) was 0.442. For the same compound, the relative viability ([15]; first compound 2.53 µM) was 0.447, the relative viability ([15]; first compound 8 µM) was 0.48 and the relative viability ([16]; first compound 0.08 µM) was 1. It also gave a relative viability ([16]; first compound 0.253 µM) of 0.763, a relative viability ([16]; first compound 0.8 µM) of 1.12 and a relative viability ([16]; first compound 2.53 µM) of 0.605. The relative viability ([16]; first compound 8 µM) was 1.01, the relative viability ([17]; first compound 0.08 µM) was 0.2 and the relative viability ([17]; first compound 0.253 µM) was 0.208. For the same compound, the relative viability ([17]; first compound 0.8 µM) was 0.181, the relative viability ([17]; first compound 2.53 µM) was 0.189 and the relative viability ([17]; first compound 8 µM) was 0.185. For the same compound, the relative viability ([18]; first compound 0.08 µM) was 0.295, the relative viability ([18]; first compound 0.253 µM) was 0.278 and the relative viability ([18]; first compound 0.8 µM) was 0.283. The relative viability ([18]; first compound 8 µM) was 0.263, the relative viability ([19]; first compound 0.08 µM) was 0.62 and the relative viability ([19]; first compound 0.253 µM) was 0.669. For the same compound, the relative viability ([19]; first compound 0.8 µM) was 0.643, the relative viability ([19]; first compound 2.53 µM) was 0.578 and the relative viability ([19]; first compound 8 µM) was 0.55. It also gave a relative viability ([20]; first compound 0.08 µM) of 0.224, a relative viability ([20]; first compound 0.253 µM) of 0.265 and a relative viability ([20]; first compound 0.8 µM) of 0.262. The relative viability ([20]; first compound 2.53 µM) was 0.18, the relative viability ([20]; first compound 8 µM) was 0.239 and the relative viability ([21]; first compound 0.08 µM) was 0.141. For the same compound, the relative viability ([21]; first compound 0.253 µM) was 0.146, the relative viability ([21]; first compound 0.8 µM) was 0.137 and the relative viability ([21]; first compound 2.53 µM) was 0.141. For the same compound, the relative viability ([21]; first compound 8 µM) was 0.131, the relative viability ([22]; first compound 0.08 µM) was 0.456 and the relative viability ([22]; first compound 0.253 µM) was 0.487. It also gave a relative viability ([22]; first compound 0.8 µM) of 0.469, a relative viability ([22]; first compound 2.53 µM) of 0.46 and a relative viability ([22]; first compound 8 µM) of 0.461. For the same compound, the relative viability ([23]; first compound 0.08 µM) was 0.97, the relative viability ([23]; first compound 0.253 µM) was 0.911 and the relative viability ([23]; first compound 0.8 µM) was 0.839. For the same compound, the relative viability ([23]; first compound 2.53 µM) was 0.766 and the relative viability ([23]; first compound 8 µM) was 0.919.
